{"source": "patent US8461085B2", "about": "“Bioherbicide from Festuca spp” (Cornell Research Foundation, Inc., priority 2005, dated 2013)", "key": {"[1]": {"test_system": "Arabidopsis thaliana seedlings", "test": "Arabidopsis root growth inhibition in growth media", "format": "in vivo", "details": "for relative toxicity of the D, L and DL forms: Arabidopsis thaliana seedlings"}, "[2]": {"test_system": "lettuce seedlings (Lactuca sativa L.)", "test": "Petri-dish bioassay, radicle elongation in lettuce seedlings", "format": "in vivo", "details": "lettuce seedlings"}}, "note": "Entries after “also recorded” stand apart in the source; their conditions may differ.", "data": [{"molecule": "N[C@@H](Cc1cccc(O)c1)C(=O)O", "note": "[L-m-tyrosine, L-3′-hydroxyphenylalanine]", "values": [{"measurement": "toxicity of the three forms at 40 μM", "setting": "[1]", "result": "same level of toxicity"}, {"measurement": "relative toxicity of the D, L and DL forms", "setting": "[1]", "result": "roughly equal toxicity"}]}, {"molecule": "N[C@H](Cc1cccc(O)c1)C(=O)O", "note": "[D-m-tyrosine]", "values": [{"measurement": "toxicity of the three forms at 40 μM", "setting": "[1]", "result": "same level of toxicity"}, {"measurement": "relative toxicity of the D, L and DL forms", "setting": "[1]", "result": "less toxic at low concentrations"}]}, {"molecule": "O=C(O)C(=O)Cc1cccc(O)c1", "note": "[m-hydroxyphenylpyruvic acid]", "values": [{"measurement": "toxicity compared with m-tyrosine", "setting": "[1]; Arabidopsis root growth", "result": "as toxic as m-tyrosine"}, {"measurement": "root growth of Arabidopsis when phenylalanine is added to the media", "setting": "[1]; in vivo", "result": "not rescued"}]}, {"molecule": "NC(Cc1cccc(O)c1)C(=O)O", "note": "(stereo not drawn) [DL m-tyrosine]", "values": [{"measurement": "toxicity of the three forms at 40 μM", "setting": "[1]", "result": "same level of toxicity"}, {"measurement": "relative toxicity of the D, L and DL forms", "setting": "[1]", "result": "roughly equal toxicity"}]}, {"molecule": "N[C@@H](Cc1ccc(O)cc1)C(=O)O", "note": "[p-tyrosine, tyrosine]", "values": [{"measurement": "phytotoxicity", "setting": "[2]", "result": "no toxicity; also recorded: not phytotoxic"}, {"measurement": "rescue of root growth inhibition initiated by 3 μM of m-tyrosine", "setting": "[1]; concentrations up to 1 mM", "result": "did not rescue"}]}, {"molecule": "N[C@@H](Cc1ccccc1O)C(=O)O", "note": "[o-tyrosine, 2′-hydroxyphenylalanine]", "values": [{"measurement": "phytotoxicity", "setting": "[2]", "result": "no toxicity; also recorded: not phytotoxic; also recorded: devoid of herbicidal activity"}]}, {"molecule": "N[C@@H](Cc1ccccc1)C(=O)O", "note": "[phenylalanine, reference compound]", "values": [{"measurement": "root growth restored by addition of phenylalanine", "setting": "[1]; root growth inhibition initiated by m-tyrosine", "result": "80 % of the control levels"}]}]}
